Reference: US20250332154A1, “USE OF NAPHTHOQUINE PHOSPHATE IN PREPARATION OF A MEDICAMENT FOR TREATING AUTOIMMUNE DISEASES” (SHANGHAI PHARMACEUTICALS INDUSTRY CO., LTD, priority 2022, published 2025)
Where a name gives a salt, the structure may show the parent alone.

What was measured:
Format in all cases: cell-based
IL-10 = IL-10 secretion by TLRs-L-stimulated mouse whole spleen lymphocytes (ELISA); conditions: Lymphocyte, 48 h
Experimental: (§1) BALB/c mice were sacrificed by cervical dislocation, and spleens were aseptically excised to prepare whole spleen lymphocytes. The cells were adjusted to 5×10^6 cells/ml. Hydroxychloroquine sulfate was diluted with a 3-fold gradient into 3 concentrations starting from 30 μM: 30, 10 and 3 μM; naphthoquine phosphate was diluted with a 3-fold gradient into 3 concentrations starting from 10 μM: 10, 3 and 1 μM.
Mouse spleen lymphocytes were inoculated into a 96-well plate at 100 μl/well, and the stimulant TLR4-L (final concentration: 10 μg/ml), TLR7-L (final concentration: 5 μg/ml) or TLR9-L (final concentration: 1 μM) and the compounds diluted with the above concentration gradients were added. A corresponding stimulation control and a cell control (without stimulation) were set up. The cells were cultured in a 37° C., 5% CO2 incubator for 48 hours. After the end of the culture, the cell culture supernatants were collected, and the levels of IL-1β, IL-6, and IL-10 were measured by ELISA.

[1] = tested on: mouse whole spleen lymphocytes; assay: TLRs-L-stimulated proliferation of mouse whole spleen lymphocytes (3H-TdR); conditions: for IC50: Mus musculus, Lymphocyte, 48 h
Experimental: as §1
A suspension of mouse spleen lymphocytes was inoculated into a 96-well plate at […], and the stimulant TLR4-L (final concentration: 10 μg/ml), TLR7-L (final concentration: 5 μg/ml) or TLR9-L (final concentration: 1 μM) and compounds diluted with the above concentration gradients were added. A corresponding stimulation control and a cell control (without stimulation) were set up. The cells were cultured in a 37° C., 5% CO2 incubator for 48 hours. Eight hours before the end of culture, ^3H-TdR was added, and the culture continued until the end of the experiment. The cells were collected onto glass fiber membranes using a cell collector. 5 ml scintillation fluid was added, and the values of radioactive counts per minute were read on a Beta counter (2450 Microplate Counter, PerkinElmer).

IgM = IgM secretion by TLRs-L-stimulated purified mouse B cells (ELISA); conditions: B-cell, 120 h, stimulant TLR4-L 10 μg/ml
Experimental: BALB/c mice were sacrificed by cervical dislocation, and spleens were aseptically excised to prepare spleen lymphocytes. The cells were adjusted to 1×10^8 cells/ml, blocked with 2.4G2 (final concentration: 10 μg/ml) for 20 min, cultured with PE-CD19 (final concentration: 5 μg/ml) for 20 min, washed with MACS buffer, centrifuged at 4° C., 300G for 10 min, 100 μl anti-PE beads were added per 1×10^8 cells, incubated with 900 μl MACS buffer for 15 min, washed with MACS buffer, centrifuged at 4° C., 300G for 10 min. The supernatant was discarded. 500 μl MACS buffer was added per 1×10^8 cells to resuspend the cells. MACS column was used for separation. Magnetically labeled cells were retained on the column. The MACS column was removed from the magnetic field and then eluted.
A suspension of purified mouse B cells was inoculated into a 96-well plate at 4×10^5/well. Hydroxychloroquine sulfate was diluted with a 2-fold gradient into 3 concentrations, starting from 8 μM: 8, 4 and 2 μM. Naphthoquine phosphate was diluted with a 2-fold gradient into 3 concentrations starting from 0.5 μM.: 0.5, 0.25 and 0.125 μM. […] After the end of the culture, the cell culture supernatants were collected, and the levels of IgG and IgM were measured by ELISA.

IC50 (IL-10; stimulant TLR4-L 10 μg/ml) [µM]	IC50 (IL-10; stimulant TLR7-L 5 μg/ml) [µM]	IC50 (IL-10; stimulant TLR9-L 1 μM) [µM]	IC50 (IgM) [µM]	Compound	IC50 ([1]; stimulant TLR4-L 10 μg/ml) [µM]	IC50 ([1]; stimulant TLR7-L 5 μg/ml) [µM]	IC50 ([1]; stimulant TLR9-L 1 μM) [µM]	proliferation and cytokine and antibody secretion mediated by specific TLRs-L ([1]; mouse whole spleen lymphocytes, in words)
3.19	1.11	3.3	> 8	CCN(CCO)CCCC(C)Nc1ccnc2cc(Cl)ccc12 (stereo not drawn) [Hydroxychloroquine Sulfate, hydroxychloroquine sulfate]	6.61	18.9	8.79	–
0.106	0.039	0.19	0.21	CC(C)(C)NCc1cc(Nc2ccnc3cc(Cl)ccc23)c2c(c1O)CCCC2.O=P(O)(O)O.O=P(O)(O)O [Naphthoquine Phosphate, Naphthoquine phosphate]	0.129	1.05	0.218	significantly inhibited
